pIC50: −log10 of the molar value. Counter-ions that a name gives are not always drawn.
Legend:
[1] = system: human acute leukemia MV-4-11 cell line; test: Cell growth inhibition 2, MV-4-11; assay type: cell-based; details: MV4-11
[2] = system: human lung cancer A-427 cell line; test: Cell growth inhibition 2, A-427; assay type: cell-based
[3] = system: human prostate cancer LNCAP.FGC cell line; test: Cell growth inhibition 2, LNCaP.FGC; assay type: cell-based
[4] = system: human skin cancer A-431 cell line; test: Cell growth inhibition 2, A-431; assay type: cell-based
[5] = system: human acute T lymphoblastic leukemia CCRF-CEM cell lines; test: Cell growth inhibition 1 (CellTiter-Glo); assay type: cell-based; details: culture with test compound 72 hours
[6] = system: human breast cancer MDA-MB-453 cell line; test: Cell growth inhibition 2, MDA-MB-453; assay type: cell-based
[7] = system: human diffuse large B-cell lymphoma DB cell line; test: Cell growth inhibition 2, DB; assay type: cell-based
[8] = system: human multiple myeloma U266B1 cell line; test: Cell growth inhibition 2, U266B1; assay type: cell-based
[9] = system: human pancreatic cancer Capan-1 cell line; test: Cell growth inhibition 2, Capan-1; assay type: cell-based
[10] = system: human colon cancer HCT116 cell line; test: Cell growth inhibition 2, HCT116; assay type: cell-based; details: HCT-116
HL-60 = test: Example 1: combined use with proteasome inhibitor, cell growth inhibition test (IC50 ratio, CI), HL-60; assay type: cell-based; details: for CI: at ED50
[11] = system: tumor cell line shown in Table 34; test: Example 7: combined use with Exportin-1 inhibitor, cell growth inhibition test (IC50 ratio, CI); assay type: cell-based; details: HCT116; for CI: at ED50
[12] = system: tumor cell line shown in Table 28; test: Example 4: combined use with PARP inhibitor, cell growth inhibition test (IC50 ratio, CI); assay type: cell-based; details: A549; for CI: at ED50
[13] = system: tumor cell lines shown in Table 40; test: Example 10: combined use with HDAC inhibitor, cell growth inhibition test (IC50 ratio, CI); assay type: cell-based; details: U266B1; for CI: at ED50; for Comprehensive Evaluation: combined use with Reference Example Compound 55
[14] = system: human osteo- and soft tissue sarcoma SJCRH30 cell line; test: Cell growth inhibition 2, SJCRH30; assay type: cell-based
[15] = target: T1, NAE (heterodimer of APPBP1 and UBA3) (Homo sapiens, UniProt Q8TBC4); test: Nedd8 conjugation inhibitory activity (AlphaScreen); assay type: biochemical; details: purified NAE, GST-UBC12, ATP, Biotin-Nedd8, reaction 90 minutes
T1 construct: amino acids 1 to 463 of human UBA3 protein; made in house; host or cells: Sf9 insect cells (baculovirus co-infection) for NAE; E. coli BL21 (DE3) for GST-UBC12
T1 sequence (Q8TBC4 1-463): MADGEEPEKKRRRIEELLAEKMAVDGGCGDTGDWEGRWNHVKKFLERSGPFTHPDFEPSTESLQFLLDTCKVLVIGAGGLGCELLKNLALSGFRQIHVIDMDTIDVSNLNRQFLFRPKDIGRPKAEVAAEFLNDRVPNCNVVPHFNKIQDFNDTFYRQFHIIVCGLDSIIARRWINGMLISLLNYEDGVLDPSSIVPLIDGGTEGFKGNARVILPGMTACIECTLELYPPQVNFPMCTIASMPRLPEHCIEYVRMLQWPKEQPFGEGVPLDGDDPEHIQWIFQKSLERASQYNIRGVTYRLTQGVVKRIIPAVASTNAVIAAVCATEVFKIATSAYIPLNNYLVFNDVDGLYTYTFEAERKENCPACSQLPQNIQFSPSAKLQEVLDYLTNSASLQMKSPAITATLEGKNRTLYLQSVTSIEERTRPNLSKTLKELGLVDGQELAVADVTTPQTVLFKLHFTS
T1 sequence (Q13564 1-534 partner): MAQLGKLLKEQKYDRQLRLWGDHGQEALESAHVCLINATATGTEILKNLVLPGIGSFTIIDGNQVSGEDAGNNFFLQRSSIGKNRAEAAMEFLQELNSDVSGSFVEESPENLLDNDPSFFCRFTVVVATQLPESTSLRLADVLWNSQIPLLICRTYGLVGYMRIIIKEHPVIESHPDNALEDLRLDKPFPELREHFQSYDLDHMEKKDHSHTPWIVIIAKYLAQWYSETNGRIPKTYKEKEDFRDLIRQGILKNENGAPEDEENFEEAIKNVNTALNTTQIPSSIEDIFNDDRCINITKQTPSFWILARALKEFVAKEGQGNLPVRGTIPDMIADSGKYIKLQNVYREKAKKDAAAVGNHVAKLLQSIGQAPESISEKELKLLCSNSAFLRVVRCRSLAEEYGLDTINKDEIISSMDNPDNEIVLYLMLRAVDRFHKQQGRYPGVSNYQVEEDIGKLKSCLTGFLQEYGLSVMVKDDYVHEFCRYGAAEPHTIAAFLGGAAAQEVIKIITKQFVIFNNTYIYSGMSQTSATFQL

[16] = system: human clear cell sarcoma SU-CCS-1 cell lines; test: Example 18: tumor growth inhibition in mice, combinational treatment with doxorubicin; assay type: in vivo; details: day 22
Description: RTVn=TVn/TV1 (equation D)
BWCn (%)=(BWn−BW1)/BW1×100 (equation F)
The test ended on day 22.
The control group was untreated.

[17] = IC50 of Reference Example Compound 55 : IC50 of other compound = 1:value
[18] = Reference Example Compound 55:other compound 1:10
[19] = Reference Example Compound 55:other compound 1:30
[20] = combined use with Reference Example Compound 55
[21] = SU-CCS-1 in mice, intravenously 8 mg/kg/day, day 1

pIC50 [1] | pIC50 [2] | pIC50 [3] | pIC50 [4] | pIC50 [5] | pIC50 [6] | pIC50 [7] | pIC50 [8] | pIC50 [9] | pIC50 [10] | pIC50 [14] | SMILES | also measured
7.68 | 7.66 | 6.19 | 6.14 | 8.21 | 6.34 | 6.59 | 6.96 | 6.14 | 7.80 | < 5.00 | Nc1ncnc2c1c(C#Cc1c(F)cccc1F)cn2[C@@H]1O[C@H](CNS(N)(=O)=O)[C@@H](O)[C@H]1O [Reference Example 1, 4-Amino-5-[2-(2,6-difluorophenyl)ethynyl]-7-[(2R,3R,4S,5R)-3,4-dihydroxy-5-[(sulfamoylamino)methyl]tetrahydrofuran-2-yl]pyrrolo[2,3-d]pyrimidine] | IC50 [15]: ≤ 0.003 µM
7.96 | 8.27 | 6.30 | 6.92 | 8.77 | 6.32 | 6.92 | 6.66 | 6.42 | 8.19 | 5.29 | CNc1cc(F)c(C#Cc2cn([C@@H]3O[C@H](CNS(N)(=O)=O)[C@@H](O)[C@H]3O)c3ncnc(N)c23)c(F)c1 [Reference Example 25, 4-Amino-5-[2-[2,6-difluoro-4-(methylamino)phenyl]ethynyl]-7-[(2R,3R,4S,5R)-3,4-dihydroxy-5-[(sulfamoylamino)methyl]tetrahydrofuran-2-yl]pyrrolo[2,3-d]pyrimidine] | 
7.70 | 7.31 | 6.55 | 6.25 | 8.40 | 6.19 | 6.82 | 6.38 | 6.25 | 7.85 | 5.18 | Nc1ncnc2c1c(C#Cc1c(F)cc(N3CC[C@@H](F)C3)cc1F)cn2[C@@H]1O[C@H](CNS(N)(=O)=O)[C@@H](O)[C@H]1O [Reference Example 29, 4-Amino-5-[2-[2,6-difluoro-4-[(3R)-3-fluoropyrrolidin-1-yl]phenyl]ethynyl]-7-[(2R,3R,4S,5R)-3,4-dihydroxy-5-[(sulfamoylamino)methyl]tetrahydrofuran-2-yl]pyrrolo[2,3-d]pyrimidine] | 
7.49 | 7.04 | 6.17 | 6.15 | 8.24 | 6.85 | 6.96 |  | 5.92 | 7.85 | 6.25 | CN1CCOc2c1ccc(F)c2C#Cc1cn([C@@H]2O[C@H](CNS(N)(=O)=O)[C@@H](O)[C@H]2O)c2ncnc(N)c12 [Reference Example 64, 8-[2-[4-Amino-7-[(2R,3R,4S,5R)-3,4-dihydroxy-5-[(sulfamoylamino)methyl]tetrahydrofuran-2-yl]pyrrolo[2,3-d]pyrimidin-5-yl]ethynyl]-7-fluoro-4-methyl-2,3-dihydro-1,4-benzoxazine] | 
7.42 | 7.66 | 6.29 | 5.80 | 8.06 | 7.12 | 6.92 | 6.57 | 6.05 | 7.74 | 6.89 | CN1CCOc2c1ccc(F)c2C#Cc1cn([C@@H]2C[C@H](CNS(N)(=O)=O)[C@@H](O)[C@H]2O)c2ncnc(N)c12 [Reference Example 122, 8-[2-[4-amino-7-[(1R,2S,3R,4R)-2,3-dihydroxy-4-[(sulfamoylamino)methyl]cyclopentyl]pyrrolo[2,3-d]pyrimidin-5-yl]ethynyl]-7-fluoro-4-methyl-2,3-dihydro-1,4-benzoxazine] | 
7.60 | 8.19 | 6.34 | 6.80 | 8.49 | 7.49 | 6.89 | 7.62 | 6.68 | 7.92 | 6.77 | CSc1cccc(F)c1C#Cc1cn([C@@H]2C=C(CNS(N)(=O)=O)[C@@H](O)[C@H]2O)c2ncnc(N)c12 [Reference Example 130, 4-Amino-7-[(1R,4R,5S)-4,5-dihydroxy-3-[(sulfamoylamino)methyl]cyclopent-2-en-1-yl]-5-[2-(2-fluoro-6-methylsulfanyl-phenyl)ethynyl]pyrrolo[2,3-d]pyrimidine] | 

More lines, now with the values behind:

SMILES | pIC50 [1] | pIC50 [2] | pIC50 [3] | pIC50 [4] | pIC50 [5] | pIC50 [6] | pIC50 [7] | pIC50 [8] | pIC50 [9] | pIC50 [10] | pIC50 [14] | also measured
NS(=O)(=O)OC[C@@H]1C[C@@H](n2ccc3c(N[C@H]4CCc5ccccc54)ncnc32)CC1O (stereo partly drawn) [Comp. Example, N-[(1S)-1-indanyl]-7-[(1R)-3α-hydroxy-4α-(sulfamoyloxymethyl)cyclopentyl]-7H-pyrrolo[2,3-d]pyrimidin-4-amine] | 6.96 | 6.74 | 6.39 | 6.12 | 7.05 | 5.72 | 6.25 | 5.85 | 5.82 | 7.05 |  | 
CC(C)C[C@H](NC(=O)CNC(=O)c1cc(Cl)ccc1Cl)B(O)O [Ixazomib, ixazomib] |  |  |  |  |  |  |  |  |  |  |  | IC50 Ratio (HL-60; [17]): 19; CI (HL-60; [18]): 0.82; CI (HL-60; [19]): 0.94; Comprehensive Evaluation (HL-60; [20]): Additive (0.9-1.10)
O=C(/C=C\n1cnc(-c2cc(C(F)(F)F)cc(C(F)(F)F)c2)n1)NNc1cnccn1 [KPT-330] |  |  |  |  |  |  |  |  |  |  |  | IC50 Ratio [11, 17]: 21; CI ([11]; Reference Example Compound 55:other compound 1:11): 0.69; CI ([11]; Reference Example Compound 55:other compound 1:33): 0.75; Comprehensive Evaluation [11, 20]: Moderate
O=C(c1cc(Cc2n[nH]c(=O)c3ccccc23)ccc1F)N1CCN(C(=O)C2CC2)CC1 [Olaparib, olaparib] |  |  |  |  |  |  |  |  |  |  |  | IC50 Ratio [12, 17]: 21; CI [12, 18]: 0.61; CI [12, 19]: 0.69; Comprehensive Evaluation [12, 20]: Synergism (0.3-0.7)
Cc1[nH]c2ccccc2c1CCNCc1ccc(/C=C/C(=O)NO)cc1 [Panobinostat, panobinostat] |  |  |  |  |  |  |  |  |  |  |  | IC50 Ratio [13, 17]: 0.08; CI ([13]; Reference Example Compound 55:other compound 1:0.07): 0.90; CI ([13]; Reference Example Compound 55:other compound 1:0.22): 0.61; Comprehensive Evaluation [13]: Additive (0.9-1.10)
O=C(CCCCCCC(=O)Nc1ccccc1)NO [Vorinostat, vorinostat] |  |  |  |  |  |  |  |  |  |  |  | Comprehensive Evaluation [13]: Additive (0.9-1.10)
COc1cccc2c1C(=O)c1c(O)c3c(c(O)c1C2=O)C[C@@](O)(C(=O)CO)C[C@@H]3O[C@H]1C[C@H](N)[C@H](O)[C@H](C)O1 [doxorubicin hydrochloride] |  |  |  |  |  |  |  |  |  |  |  | RTV22 compared with the control group (Dunnett's test) ([16]; SU-CCS-1 in BALB/cAJcl-nu/nu mice, reference example compound 12.5 or 25 mg/kg/day iv day 1 and 8, doxorubicin hydrochloride 8 mg/kg/day iv day 1): significantly lower; BWC22 (%) Mean ± SD [16, 21]: −0.3 ± 2.6%; RTV22 Mean ± SD [16, 21]: 6.6 ± 0.8; T/C22 (%) [16, 21]: 74%

From patent US20190010158A1, “ANTITUMOR EFFECT POTENTIATOR COMPRISING PYRROLOPYRIMIDINE COMPOUND” (TAIHO PHARMACEUTICAL CO., LTD, priority 2015, published 2019)
